“And” between values parts separate entries of the source, which are not always exact repeats. Identical values can stand only once.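 96-well plates; 48 h exposure; 5 concentrations. Endpoints by linear interpolation between flanking doses. Not reached: highest tested concentration assigned. GI50 marks 50% less growth. TGI: concentration producing complete growth inhibition.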
Columns and labels:
Assay in all cases: NCI anticancer screen, dose series, 48 h
HL-60(TB) leukemia = system: HL-60(TB) leukemia
NCI-H522 lung = system: NCI-H522 lung
SF-268 CNS = system: SF-268 CNS
CCRF-CEM leukemia = system: CCRF-CEM leukemia
ACHN renal = system: ACHN renal
UACC-257 melanoma = system: UACC-257 melanoma
CAKI-1 renal = system: CAKI-1 renal
A549 NSCLC = system: A549 NSCLC
SK-MEL-28 melanoma = system: SK-MEL-28 melanoma
M14 melanoma = system: M14 melanoma

Compound | GI50 (HL-60(TB) leukemia) | TGI (HL-60(TB) leukemia) | GI50 (NCI-H522 lung) [µM] | TGI (NCI-H522 lung) | GI50 (SF-268 CNS) | TGI (SF-268 CNS) | GI50 (CCRF-CEM leukemia) | TGI (CCRF-CEM leukemia) | GI50 (ACHN renal) | TGI (ACHN renal) | GI50 (UACC-257 melanoma) | TGI (UACC-257 melanoma) | GI50 (CAKI-1 renal) | TGI (CAKI-1 renal) | GI50 (A549 NSCLC) | TGI (A549 NSCLC) | GI50 (SK-MEL-28 melanoma) | TGI (SK-MEL-28 melanoma) | GI50 (M14 melanoma) | TGI (M14 melanoma) [µM]
O=[N+]([O-])c1ccc(N2CCN(Cc3ccccc3)CC2)c2c1no[n+]2[O-] | 0.473 µM | 2.99 µM | 0.682 | 2.16 µM | 1.42 µM | 3.22 µM | 0.155 µM | 2.49 µM | 0.85 µM | 2.2 µM | 1.68 µM | 3.86 µM | 1.42 µM | 3.48 µM | 1.5 µM | 3.19 µM | 3.56 µM | 9.07 µM | 1.8 µM | 3.52
COC(=O)/C=C/c1cc(O)c2c(c1)C(C(=O)OC)C(c1ccc(O)c(O)c1)O2 (configuration not stated) | 0.0845 µM and 0.0298 µM | 0.164 µM and 0.106 µM | 0.0286 | 3.45 µM and 0.379 µM | 0.721 µM and 0.0833 µM | > 89.8 µM | 0.0892 µM | 22.5 µM and > 100 µM | 0.183 µM and 0.0676 µM | 43.6 µM and > 82.3 µM | 11.5 µM and 4.5 µM | 63.3 µM and 48.7 µM | 0.644 µM and 0.393 µM | > 100 µM | 4.95 µM and 1.11 µM | 61.9 µM and 23.7 µM |  | 60.8 µM and > 100 µM | 0.131 µM and 0.0279 µM | > 41.3
O=C1OC(c2ccco2)=N/C1=C\c1ccc(Cl)c(Cl)c1 |  | > 100 µM |  | > 100 µM |  | > 100 µM |  | > 100 µM |  | > 100 µM |  | > 100 µM |  | > 100 µM |  | > 100 µM |  | > 100 µM |  | > 100
CC1=CC=NN2C(=O)[C@H](C)C2C1 (some centres not stated) |  | > 100 µM |  | > 100 µM |  | > 100 µM |  | > 100 µM |  | > 100 µM |  | > 100 µM |  |  |  | > 100 µM |  | > 100 µM |  | > 100
Cc1ccc(S(=O)(=O)N/N=C(\CCN2CCCC2)CC(c2ccccc2)c2c(O)c3ccccc3oc2=O)cc1 (configuration not stated) |  | > 100 µM |  | > 100 µM |  | > 100 µM |  | > 100 µM |  | > 100 µM |  | > 100 µM |  | > 100 µM |  | > 100 µM |  |  |  | > 100
Cc1[nH]c(=O)[nH]c(=O)c1N(CCF)CCCl | 42.6 µM | 246 µM and 302 µM and 219 µM |  | 375 µM and 416 µM and 519 µM | 192 µM and 329 µM | 651 µM and 1120 µM and 1100 µM | 96 µM and 48.4 µM | 796 µM and 626 µM and 791 µM |  | 1220 µM | 228 µM | 465 µM and 1070 µM and 855 µM | 137 µM | 634 µM and 711 µM | 335 µM and 455 µM | 990 µM and 1210 µM and 1850 µM | 256 µM and 494 µM | 589 µM and 1140 µM and 711 µM |  | 767
O=C(O)c1ccc(S(=O)(=O)c2ccccc2)c([N+](=O)[O-])c1 |  | > 100 µM |  | > 100 µM |  | > 100 µM |  | > 100 µM |  | > 100 µM |  | > 100 µM |  | > 100 µM |  | > 100 µM |  | > 100 µM |  | > 100
CCNc1nnc(CSc2nc(-c3ccccc3)c(-c3ccccc3)[nH]2)s1 |  | 37 µM |  | 39.7 µM |  | 39.3 µM |  | 40.3 µM |  | 74.6 µM |  | 34.9 µM |  |  |  | 69.5 µM |  | 36.1 µM |  | 35.7
O=C(Cc1nc2ccccc2s1)C(=O)Nc1ccc(Cl)cc1 |  | > 100 µM |  | > 100 µM |  | > 100 µM |  |  |  | > 100 µM |  | > 100 µM |  | > 100 µM |  | > 100 µM |  | > 100 µM |  | > 100
O=C(O)c1ccc(NC(=O)C2C(=O)C(=O)N(c3ccc(C(=O)O)cc3)C2=O)cc1 (configuration not stated) |  | > 100 µM |  | > 100 µM |  | > 100 µM |  | > 100 µM |  | > 100 µM |  | > 100 µM |  | > 100 µM |  | > 100 µM |  | > 100 µM |  | 
C/C(=N\NC(=S)N1CCCCCC1)c1nccnc1C |  | 2.95 µM |  |  |  | > 100 µM |  |  |  | 3.24 µM |  | 1.77 µM |  | > 100 µM |  | 30.6 µM |  | > 100 µM |  | 0.654
CC(=O)N1CCC2(C=Nc3ccccc32)CC1 |  | > 100 µM |  |  |  |  |  | > 100 µM |  | > 100 µM |  | > 100 µM |  | > 100 µM |  | > 100 µM |  | > 100 µM |  | > 100
Cc1ccc(Nc2nc(NCCO)c3ccccc3n2)cc1C | 11 µM | 31 µM | 4.68 | 18 µM | 9.27 µM | 22.2 µM | 4.57 µM | 18.6 µM | 11 µM | 23.9 µM | 2.14 µM | 7.37 µM | 4.66 µM | 17.8 µM | 5.4 µM | 22.7 µM | 6.47 µM | 20.1 µM |  | 
COc1cccc(N2C(=O)c3c(c4[nH]c5ccccc5c4c4ccc(C(C)(C)C)cc34)C2=O)c1 |  |  |  | > 100 µM |  | > 100 µM |  | > 100 µM |  | > 100 µM |  | > 100 µM |  | > 100 µM |  | > 100 µM |  | > 100 µM |  | > 100
Nc1ccccc1C#CC#Cc1ccccc1N | 3.97 µM | > 100 µM | 11.5 | 38.6 µM |  |  |  |  | 10.6 µM | 22.9 µM | 4.56 µM | 24.5 µM | 1.36 µM | 18.7 µM | 13.8 µM | 87.4 µM | 48 µM | > 100 µM | 7.34 µM | 65.8
CN(C)c1ccc(-c2cc(=O)c3ccccc3[nH]2)cc1 |  | > 100 µM |  | > 100 µM |  | > 100 µM |  | > 100 µM |  | > 100 µM |  | > 100 µM |  |  |  | > 100 µM |  | > 100 µM |  | > 100
CC(C)C(C(=O)O)N(CC1(O)OCC(O)C(O)C1O)N=O (configuration not stated) |  | > 100 µM |  | > 100 µM |  |  |  | > 100 µM |  | > 100 µM |  | > 100 µM |  |  |  | > 100 µM |  | > 100 µM |  | > 100
COC(=O)c1c[nH]cc1CCc1c[nH]cc1C(=O)OC |  | > 100 µM |  | > 100 µM |  | > 100 µM |  | > 100 µM |  | > 100 µM |  | > 100 µM |  | > 100 µM |  | > 100 µM |  | > 100 µM |  | 
CN(C)CCNC(=O)c1ccc(Nc2nc3ccccc3c3occc23)cc1 |  |  | 13.3 | 29.8 µM | 63.7 µM | > 100 µM | 3.04 µM | 8.74 µM | 2.54 µM | 7.56 µM |  |  | 2.18 µM | 4.95 µM | 4.08 µM | 16.1 µM | 16.5 µM | 44 µM | 1.7 µM | 3.15

From PubChem BioAssay (NCI)
